# Measurements from ChEMBL document CHEMBL3991601, “The target landscape of clinical kinase drugs” (Science, 2017).
# Activity calls are given as the source filed them.
# Columns and labels:
# [1] = target: T1, Delta(24)-sterol reductase (Homo sapiens, UniProt Q15392)
# T1 sequence (Q15392 whole entry): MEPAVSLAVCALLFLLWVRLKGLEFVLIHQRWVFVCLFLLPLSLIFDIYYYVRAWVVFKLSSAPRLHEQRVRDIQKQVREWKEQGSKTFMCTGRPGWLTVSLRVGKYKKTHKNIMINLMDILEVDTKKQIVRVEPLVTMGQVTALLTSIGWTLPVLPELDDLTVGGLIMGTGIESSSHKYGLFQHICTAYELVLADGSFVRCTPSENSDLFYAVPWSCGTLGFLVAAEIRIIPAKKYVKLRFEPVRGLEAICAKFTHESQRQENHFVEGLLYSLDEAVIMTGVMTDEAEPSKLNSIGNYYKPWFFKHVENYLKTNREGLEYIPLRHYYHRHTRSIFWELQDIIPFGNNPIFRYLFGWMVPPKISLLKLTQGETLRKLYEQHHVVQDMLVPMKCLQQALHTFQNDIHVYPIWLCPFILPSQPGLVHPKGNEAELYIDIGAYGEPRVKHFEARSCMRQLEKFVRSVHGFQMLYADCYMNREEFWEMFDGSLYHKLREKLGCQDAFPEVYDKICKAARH
# [2] = target: T2, MAP/microtubule affinity-regulating kinase 4 (Homo sapiens, UniProt Q96L34)
# T2 sequence (Q96L34 whole entry): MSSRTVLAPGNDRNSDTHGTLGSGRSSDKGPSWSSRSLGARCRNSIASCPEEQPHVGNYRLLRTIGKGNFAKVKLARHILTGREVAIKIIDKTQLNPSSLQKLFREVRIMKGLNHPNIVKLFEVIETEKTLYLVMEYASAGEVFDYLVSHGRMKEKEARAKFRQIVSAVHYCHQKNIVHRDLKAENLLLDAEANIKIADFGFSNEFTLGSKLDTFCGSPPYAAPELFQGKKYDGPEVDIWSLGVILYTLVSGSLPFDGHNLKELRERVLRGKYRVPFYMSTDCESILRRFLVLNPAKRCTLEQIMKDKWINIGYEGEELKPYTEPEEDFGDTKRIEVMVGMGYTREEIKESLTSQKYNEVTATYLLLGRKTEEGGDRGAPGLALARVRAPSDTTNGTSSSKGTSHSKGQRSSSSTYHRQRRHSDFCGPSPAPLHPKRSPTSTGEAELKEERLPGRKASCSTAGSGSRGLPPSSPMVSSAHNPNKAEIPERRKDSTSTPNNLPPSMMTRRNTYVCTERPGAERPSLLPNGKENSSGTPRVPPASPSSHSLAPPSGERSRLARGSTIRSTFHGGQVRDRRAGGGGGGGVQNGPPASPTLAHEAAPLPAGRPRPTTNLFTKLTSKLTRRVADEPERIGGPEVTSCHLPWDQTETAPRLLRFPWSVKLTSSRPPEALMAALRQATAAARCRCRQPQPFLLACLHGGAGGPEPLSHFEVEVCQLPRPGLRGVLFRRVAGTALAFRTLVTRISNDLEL
# [3] = target: Cyclin-dependent kinase 5 (Homo sapiens, UniProt Q00535)
# [4] = target: Serine/threonine-protein kinase pim-1 (Homo sapiens, UniProt P11309)
# [5] = target: Structural maintenance of chromosomes protein 2 (Homo sapiens, UniProt O95347)
# [6] = target: T3, Phenylalanine--tRNA ligase beta subunit (Homo sapiens, UniProt Q9NSD9)
# T3 sequence (Q9NSD9 whole entry): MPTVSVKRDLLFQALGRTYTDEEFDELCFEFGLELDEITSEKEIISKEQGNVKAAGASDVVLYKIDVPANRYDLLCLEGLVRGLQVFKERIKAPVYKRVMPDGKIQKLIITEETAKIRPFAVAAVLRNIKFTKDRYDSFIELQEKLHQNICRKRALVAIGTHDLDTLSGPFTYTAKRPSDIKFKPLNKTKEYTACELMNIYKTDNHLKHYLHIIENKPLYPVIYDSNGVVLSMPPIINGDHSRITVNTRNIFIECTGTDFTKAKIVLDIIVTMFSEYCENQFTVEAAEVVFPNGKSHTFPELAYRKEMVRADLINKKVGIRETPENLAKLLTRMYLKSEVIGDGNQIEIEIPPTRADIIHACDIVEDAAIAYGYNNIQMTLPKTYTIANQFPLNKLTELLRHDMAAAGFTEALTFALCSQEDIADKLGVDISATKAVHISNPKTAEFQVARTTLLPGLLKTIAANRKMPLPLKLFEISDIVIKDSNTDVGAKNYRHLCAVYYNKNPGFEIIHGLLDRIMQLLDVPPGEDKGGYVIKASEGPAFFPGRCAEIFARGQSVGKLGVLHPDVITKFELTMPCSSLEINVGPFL
# Also: in the data inactive means no Kd found up to 30 µM.
# Serine/threonine-protein kinase pim-1, sequence (P11309 whole entry): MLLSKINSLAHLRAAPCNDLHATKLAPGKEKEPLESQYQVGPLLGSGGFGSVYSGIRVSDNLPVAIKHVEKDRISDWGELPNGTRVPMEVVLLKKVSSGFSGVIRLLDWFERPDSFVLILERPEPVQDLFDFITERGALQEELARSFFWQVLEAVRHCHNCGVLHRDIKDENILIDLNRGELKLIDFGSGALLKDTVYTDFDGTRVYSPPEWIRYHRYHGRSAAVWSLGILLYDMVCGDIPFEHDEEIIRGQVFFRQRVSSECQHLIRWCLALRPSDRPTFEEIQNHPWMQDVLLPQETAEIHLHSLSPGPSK
# Structural maintenance of chromosomes protein 2, sequence (O95347 whole entry): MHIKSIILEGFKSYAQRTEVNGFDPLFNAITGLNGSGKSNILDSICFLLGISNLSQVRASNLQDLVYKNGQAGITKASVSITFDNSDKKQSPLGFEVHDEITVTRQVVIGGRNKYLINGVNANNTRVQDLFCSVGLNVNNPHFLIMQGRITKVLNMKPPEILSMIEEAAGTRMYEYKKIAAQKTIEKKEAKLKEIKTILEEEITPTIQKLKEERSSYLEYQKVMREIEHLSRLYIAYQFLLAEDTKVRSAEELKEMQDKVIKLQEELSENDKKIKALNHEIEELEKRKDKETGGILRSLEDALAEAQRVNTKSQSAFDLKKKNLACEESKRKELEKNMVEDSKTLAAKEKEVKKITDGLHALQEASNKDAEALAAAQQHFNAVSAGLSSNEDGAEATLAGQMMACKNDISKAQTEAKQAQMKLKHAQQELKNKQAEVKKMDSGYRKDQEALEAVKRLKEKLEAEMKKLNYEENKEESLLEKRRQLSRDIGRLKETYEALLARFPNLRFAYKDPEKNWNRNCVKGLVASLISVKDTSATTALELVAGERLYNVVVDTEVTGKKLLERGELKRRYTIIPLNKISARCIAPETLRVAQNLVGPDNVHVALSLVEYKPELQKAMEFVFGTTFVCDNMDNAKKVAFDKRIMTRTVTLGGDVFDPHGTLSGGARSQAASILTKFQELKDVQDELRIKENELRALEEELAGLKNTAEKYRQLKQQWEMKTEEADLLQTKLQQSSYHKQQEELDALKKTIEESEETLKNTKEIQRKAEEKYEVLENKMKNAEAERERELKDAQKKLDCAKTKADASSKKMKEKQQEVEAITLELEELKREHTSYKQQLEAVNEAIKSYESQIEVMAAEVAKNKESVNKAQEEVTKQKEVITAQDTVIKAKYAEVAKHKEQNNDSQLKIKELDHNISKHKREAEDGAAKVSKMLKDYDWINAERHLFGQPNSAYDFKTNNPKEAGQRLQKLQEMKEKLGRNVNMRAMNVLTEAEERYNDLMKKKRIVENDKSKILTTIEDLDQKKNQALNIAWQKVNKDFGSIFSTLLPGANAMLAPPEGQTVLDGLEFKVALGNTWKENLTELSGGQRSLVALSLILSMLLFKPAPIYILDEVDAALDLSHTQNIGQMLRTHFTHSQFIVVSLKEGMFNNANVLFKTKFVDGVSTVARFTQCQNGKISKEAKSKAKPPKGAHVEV
# Cyclin-dependent kinase 5, sequence (Q00535 whole entry): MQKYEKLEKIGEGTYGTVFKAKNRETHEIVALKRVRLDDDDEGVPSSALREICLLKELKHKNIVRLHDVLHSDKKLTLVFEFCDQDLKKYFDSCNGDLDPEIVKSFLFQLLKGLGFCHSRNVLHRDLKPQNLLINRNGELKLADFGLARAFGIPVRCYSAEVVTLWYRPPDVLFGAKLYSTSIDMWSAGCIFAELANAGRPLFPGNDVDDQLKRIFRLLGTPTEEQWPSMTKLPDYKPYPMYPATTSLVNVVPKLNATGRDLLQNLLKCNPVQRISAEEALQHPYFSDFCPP
Structure (SMILES),Kd [1],Kd [2],Kd [3],Kd [4],Kd [5],Kd [6]
Cc1cc2c(F)c(Oc3ncnn4cc(OC[C@@H](C)OC(=O)[C@H](C)N)c(C)c34)ccc2[nH]1 [BRIVANIB ALANINATE],> 30 µM (inactive),> 30 µM (inactive),> 30 µM (inactive),> 30 µM (inactive),> 30 µM (inactive),> 30 µM (inactive)
CNC(=O)c1ccc(-c2cnc3ncc(Cc4ccc5ncccc5c4)n3n2)cc1F [CAPMATINIB],> 30 µM (inactive),> 30 µM (inactive),> 30 µM (inactive),> 30 µM (inactive),> 30 µM (inactive),> 30 µM (inactive)
O=C(c1ccc(F)c(F)c1Nc1ccc(I)cc1F)N1CC(O)([C@@H]2CCCCN2)C1 [COBIMETINIB],> 30 µM (inactive),> 30 µM (inactive),> 30 µM (inactive),> 30 µM (inactive),> 30 µM (inactive),> 30 µM (inactive)
COC(=O)N[C@@H](C)CNc1nccc(-c2cn(C(C)C)nc2-c2cc(Cl)cc(NS(C)(=O)=O)c2F)n1 [ENCORAFENIB],> 30 µM (inactive),> 30 µM (inactive),> 30 µM (inactive),> 30 µM (inactive),> 30 µM (inactive),> 30 µM (inactive)
CO[C@H]1C[C@@H]2CC[C@@H](C)[C@@](O)(O2)C(=O)C(=O)N2CCCC[C@H]2C(=O)O[C@H]([C@H](C)C[C@@H]2CC[C@@H](OCCO)[C@H](OC)C2)CC(=O)[C@H](C)/C=C(\C)[C@@H](O)[C@@H](OC)C(=O)[C@H](C)C[C@H](C)/C=C/C=C/C=C/1C [EVEROLIMUS],> 30 µM (inactive),> 30 µM (inactive),> 30 µM (inactive),> 30 µM (inactive),> 30 µM (inactive),> 30 µM (inactive)
COCCNCc1ccc(-c2cc3nccc(Oc4ccc(NC(=S)NC(=O)Cc5ccc(F)cc5)cc4F)c3s2)nc1 [GLESATINIB],> 30 µM (inactive),> 30 µM (inactive),> 30 µM (inactive),> 30 µM (inactive),> 30 µM (inactive),> 30 µM (inactive)
O=C1NC(=O)/C(=C/c2ccc3nccc(-c4ccncc4)c3c2)S1 [GSK-1059615],> 30 µM (inactive),> 30 µM (inactive),> 30 µM (inactive),0.205 µM (active),> 30 µM (inactive),> 30 µM (inactive)
CC[C@H](Nc1ncnc2[nH]cnc12)c1nc2cccc(F)c2c(=O)n1-c1ccccc1 [IDELALISIB],> 30 µM (inactive),> 30 µM (inactive),> 30 µM (inactive),> 30 µM (inactive),> 30 µM (inactive),> 30 µM (inactive)
Cn1cc(-c2ccc3nnc(C(F)(F)c4ccc5ncccc5c4)n3n2)cn1 [JNJ-38877605],> 30 µM (inactive),> 30 µM (inactive),> 30 µM (inactive),> 30 µM (inactive),> 30 µM (inactive),> 30 µM (inactive)
COC(=O)[C@@]1(O)C[C@H]2O[C@]1(C)n1c3ccccc3c3c4c(c5c6ccccc6n2c5c31)C(=O)NC4 [K-252A],> 30 µM (inactive),0.028 µM (active),0.911 µM (active),> 30 µM (inactive),> 30 µM (inactive),> 30 µM (inactive)
COc1cc2nccc(Oc3ccc(NC(=O)NC4CC4)c(Cl)c3)c2cc1C(N)=O [LENVATINIB],> 30 µM (inactive),> 30 µM (inactive),> 30 µM (inactive),> 30 µM (inactive),> 30 µM (inactive),> 30 µM (inactive)
Cc1c(F)cc(C(=O)NC2CC2)cc1-c1ccc(C(=O)NCC(C)(C)C)cn1 [LOSMAPIMOD],> 30 µM (inactive),> 30 µM (inactive),> 30 µM (inactive),> 30 µM (inactive),> 30 µM (inactive),> 30 µM (inactive)
Cn1cc(-c2ccc(F)c(C(F)(F)F)c2)nc1C1CCN(c2ncnc3[nH]ncc23)CC1 [LY-2584702],> 30 µM (inactive),> 30 µM (inactive),> 30 µM (inactive),> 30 µM (inactive),> 30 µM (inactive),> 30 µM (inactive)
Cc1ccc(-n2nc(C(C)(C)C)cc2NC(=O)NCc2cc(F)ccc2Oc2ccc3c(cnn3CCO)c2)cc1 [PEXMETINIB],> 30 µM (inactive),> 30 µM (inactive),4.16 µM (active),> 30 µM (inactive),> 30 µM (inactive),> 30 µM (inactive)
C=CC(=O)N1CCC(Oc2cc3c(Nc4ccc(Cl)c(Cl)c4F)ncnc3cc2OC)CC1 [POZIOTINIB],> 30 µM (inactive),> 30 µM (inactive),> 30 µM (inactive),> 30 µM (inactive),> 30 µM (inactive),> 30 µM (inactive)
CN1CCC(COc2cnc(-c3cccc(Cn4nc(-c5cccc(C#N)c5)ccc4=O)c3)nc2)CC1 [TEPOTINIB],> 30 µM (inactive),> 30 µM (inactive),> 30 µM (inactive),> 30 µM (inactive),> 30 µM (inactive),> 30 µM (inactive)

# The next lines start with the values.
Kd [1],Kd [2],Kd [3],Kd [4],Kd [5],Kd [6],Structure (SMILES)
> 30 µM (inactive),> 30 µM (inactive),> 30 µM (inactive),> 30 µM (inactive),> 30 µM (inactive),> 30 µM (inactive),O=C(O)[C@]1(Cc2cccc(Nc3nccs3)n2)CC[C@@H](Oc2cccc(Cl)c2F)CC1 [MK-5108]
> 30 µM (inactive),> 30 µM (inactive),> 30 µM (inactive),> 30 µM (inactive),> 30 µM (inactive),> 30 µM (inactive),C1=C/COCc2cc(ccc2OCCN2CCCC2)Nc2nccc(n2)-c2cccc(c2)COC/1 [PACRITINIB]
> 30 µM (inactive),> 30 µM (inactive),> 30 µM (inactive),> 30 µM (inactive),> 30 µM (inactive),> 30 µM (inactive),CNC(=O)c1ccc(C)c(-n2c(C)cc(OCc3ccc(F)cc3F)c(Br)c2=O)c1 [PH-797804]
> 30 µM (inactive),> 30 µM (inactive),> 30 µM (inactive),> 30 µM (inactive),> 30 µM (inactive),> 30 µM (inactive),CNC(=O)c1cc(Oc2ccc(NC(=O)Nc3ccc(Cl)c(C(F)(F)F)c3)c(F)c2)ccn1 [REGORAFENIB]
> 30 µM (inactive),> 30 µM (inactive),> 30 µM (inactive),> 30 µM (inactive),> 30 µM (inactive),> 30 µM (inactive),CN(C)C(=O)c1cc2cnc(Nc3ccc(N4CCNCC4)cn3)nc2n1C1CCCC1 [RIBOCICLIB]
> 30 µM (inactive),> 30 µM (inactive),> 30 µM (inactive),> 30 µM (inactive),> 30 µM (inactive),> 30 µM (inactive),COc1cc(OC)c(/C=C/S(=O)(=O)Cc2ccc(OC)c(NCC(=O)O)c2)c(OC)c1 [RIGOSERTIB]
> 30 µM (inactive),> 30 µM (inactive),> 30 µM (inactive),> 30 µM (inactive),> 30 µM (inactive),> 30 µM (inactive),CNC(=O)CN1CCC(Oc2cc3c(Nc4cccc(Cl)c4F)ncnc3cc2OC)CC1 [SAPITINIB]
> 30 µM (inactive),> 30 µM (inactive),> 30 µM (inactive),> 30 µM (inactive),> 30 µM (inactive),> 30 µM (inactive),O=c1sn(-c2cccc3ccccc23)c(=O)n1Cc1ccccc1 [TIDEGLUSIB]
